# Data as given in US12049543B2, “Copolymer containing cyclic nitroxide radical and trialkoxysilyl in side chain, and use thereof” (CrestecBio Inc., priority 2017, dated 2024).
# Test system: TWNT-1 (CVCL J364) hepatic stella cells
# Conditions: incubation 2 days
# From the text: In the case of this assay kit, it is necessary to note that, although the sorafenib@siRNP can be dissolved in phosphate-buffered saline (PBS), free sorafenib is required to be dissolved in dimethylsulfoxide (DMSO).
smiles,measurement,value
CNC(=O)c1cc(Oc2ccc(NC(=O)Nc3ccc(Cl)c(C(F)(F)F)c3)cc2)ccn1 [sorafenib],inhibition of proliferation of TWNT-1,inhibits the proliferation of TWNT-1
